# Laboratory results: ChEMBL document CHEMBL3808363, “2-(Thienothiazolylimino)-1,3-thiazolidin-4-ones inhibit cell division cycle 25 A phosphatase” (Bioorg Med Chem, 2016)
# Active and inactive are the calls of the source. The calls are words filed in the database; no cut-off is given here.
# Experiments:
# MDA-MB-231 [1] = experiment: Antiproliferative activity against human MDA-MB-231 cells assessed as cell viability at IC50 concentration after 48 hrs by 2',7'-dichlorofluorescin diacetate/PI staining based flow cytometry; format: functional
# [2] = target: T1, M-phase inducer phosphatase 3 (Homo sapiens) (UniProt P30307); experiment: Inhibition of human recombinant full length GST-tagged CDC25C transfected in Escherichia coli BL21-DE3 using 3-O-methylfluorescein phosphate as substrate at 10 uM incubated for 20 mins followed by substrate addition measured every 10 mins for 2 hrs by fluorimetric assay
# T1 sequence (whole entry): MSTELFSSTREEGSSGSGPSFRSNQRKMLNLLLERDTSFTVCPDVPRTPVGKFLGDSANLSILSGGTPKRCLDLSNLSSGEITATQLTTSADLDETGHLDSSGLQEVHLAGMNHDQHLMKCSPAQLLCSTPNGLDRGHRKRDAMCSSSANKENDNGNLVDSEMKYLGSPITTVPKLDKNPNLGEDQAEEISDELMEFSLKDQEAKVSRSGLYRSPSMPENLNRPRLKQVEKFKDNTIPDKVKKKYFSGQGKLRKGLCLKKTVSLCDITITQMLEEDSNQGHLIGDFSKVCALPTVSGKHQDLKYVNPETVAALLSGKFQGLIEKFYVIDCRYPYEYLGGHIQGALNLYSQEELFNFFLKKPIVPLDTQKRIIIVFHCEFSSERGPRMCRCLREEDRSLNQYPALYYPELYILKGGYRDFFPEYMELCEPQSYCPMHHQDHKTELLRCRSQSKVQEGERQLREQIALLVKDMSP
# [3] = target: T2, M-phase inducer phosphatase 1 (Homo sapiens) (UniProt P30304); experiment: (§1) Inhibition of human recombinant full length GST-tagged CDC25A transfected in Escherichia coli BL21-DE3 using 3-O-methylfluorescein phosphate as substrate at 10 uM incubated for 20 mins followed by substrate addition measured every 10 mins for 2 hrs by fluorimetric assay in presence of 0.1% BSA
# T2 sequence (whole entry): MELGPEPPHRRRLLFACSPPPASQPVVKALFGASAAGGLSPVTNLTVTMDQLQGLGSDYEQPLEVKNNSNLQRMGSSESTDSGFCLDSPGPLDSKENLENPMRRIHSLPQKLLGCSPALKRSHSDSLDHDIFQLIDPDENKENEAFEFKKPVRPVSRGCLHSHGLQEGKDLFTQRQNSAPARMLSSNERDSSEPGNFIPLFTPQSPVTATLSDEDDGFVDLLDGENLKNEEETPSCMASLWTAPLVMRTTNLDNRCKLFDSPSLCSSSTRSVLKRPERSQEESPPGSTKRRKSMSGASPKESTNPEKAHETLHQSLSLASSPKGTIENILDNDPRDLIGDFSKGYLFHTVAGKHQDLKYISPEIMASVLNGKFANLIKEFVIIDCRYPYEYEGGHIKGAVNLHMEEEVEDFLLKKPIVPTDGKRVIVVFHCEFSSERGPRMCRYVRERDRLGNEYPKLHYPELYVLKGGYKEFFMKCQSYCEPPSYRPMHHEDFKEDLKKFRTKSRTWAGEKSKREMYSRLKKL
# [4] = target: T2, M-phase inducer phosphatase 1 (Homo sapiens); experiment: as §1, with “0.025% triton X 100” for “0.1% BSA”
# [5] = target: T2, M-phase inducer phosphatase 1 (Homo sapiens); experiment: as §1, with “0.5% triton X 100” for “0.1% BSA”
# [6] = target: T2, M-phase inducer phosphatase 1 (Homo sapiens); experiment: Reversible binding affinity to human recombinant full length GST-tagged CDC25A transfected in Escherichia coli BL21-DE3 after 1 hr by MALDI-TOF mass spectrometry
# [7] = target: T3, M-phase inducer phosphatase 1 (Homo sapiens, UniProt P30304); experiment: (§2) Mixed type inhibition of human recombinant full length GST-tagged CDC25A transfected in Escherichia coli BL21-DE3 assessed as enzyme/inhibitor complex using 3-O-methylfluorescein phosphate as substrate at 5 uM incubated for 20 mins followed by substrate addition measured every 10 mins for 2 hrs by fluorimetric assay
# T3 sequence (P30304 whole entry): T2 sequence (whole entry)
# [8] = target: T3, M-phase inducer phosphatase 1; experiment: as §2, with “at 10” for “at 5”
# [9] = target: T3, M-phase inducer phosphatase 1; experiment: as §2, with “at 20” for “at 5”
# [10] = target: T3, M-phase inducer phosphatase 1; experiment: as §2, with “as enzyme/substrate/inhibitor” for “as enzyme/inhibitor”, “at 10” for “at 5”
# MCF7 [11] = experiment: Cell cycle arrest in human MCF7 cells assessed as accumulation at S phase at IC50 concentration after 48 hrs by propidium iodide staining-based flow cytometry (reference value: 19.5 +/- 0.6%); format: functional
# MCF7 [12] = experiment: Cell cycle arrest in human MCF7 cells assessed as accumulation at G2/M phase at IC50 concentration after 48 hrs by propidium iodide staining-based flow cytometry (reference value: 13.8 +/- 1%); format: functional
# MDA-MB-231 [13] = experiment: Cell cycle arrest in human MDA-MB-231 cells assessed as accumulation at G0/G1 phase at IC50 concentration after 48 hrs by propidium iodide staining-based flow cytometry (reference value: 57.3 +/- 0.3%); format: functional
# MCF7 [14] = experiment: Cell cycle arrest in human MCF7 cells assessed as accumulation at subG1 phase at IC50 concentration after 48 hrs by propidium iodide staining-based flow cytometry; format: functional
# MCF7 [15] = experiment: Induction of apoptosis in human MCF7 cells assessed as chromatin condensation after 24 to 48 hrs by DAPI staining based UV fluorescent microscopy; format: functional, cell-based
# MCF7 [16] = experiment: Induction of apoptosis in human MCF7 cells assessed as nuclear fragmentation after 24 hrs by dihydro-rhodamine 123/hoechst […] staining based UV fluorescent microscopy; format: functional, cell-based
# MDA-MB-231 [17] = experiment: Induction of apoptosis in human MDA-MB-231 cells assessed as nuclear fragmentation after 24 hrs by dihydro-rhodamine 123/hoechst […] staining based UV fluorescent microscopy; format: functional, cell-based
# MCF7 [18] = experiment: Induction of reactive oxygen species production in human MCF7 cells at IC50 concentration up to 6 hrs by DCF-2DA dye based flow cytometry; format: functional, cell-based
# MDA-MB-231 [19] = experiment: Induction of reactive oxygen species production in human MDA-MB-231 cells at IC50 concentration up to 6 hrs by DCF-2DA dye based flow cytometry; format: functional, cell-based
# MCF7 [20] = experiment: Increase in RNS levels in human MCF7 cells at IC50 concentration incubated for 24 hrs by DAF-2DA dye based flow cytometry; format: functional, cell-based
# MCF7 [21] = experiment: Induction of autophagy in human MCF7 cells assessed as acidic vesicles at 5.1 uM over 3 days by acridine orange dye based flow cytometry; format: functional, cell-based
# [22] = Cytotoxicity against human HCT116 cells assessed as inhibition of cell growth after 72 hrs by MTT assay; format: functional, cell-based; settings: HCT-116, 72 h
# MCF7 [23] = experiment: Cytotoxicity against human MCF7 cells assessed as inhibition of cell growth after 72 hrs by MTT assay; format: functional, cell-based; settings: MCF7, 72 h
# MCF7 [24] = experiment: Cytostatic activity against human MCF7 cells at IC50 concentration; format: functional, cell-based
# MDA-MB-231 [25] = experiment: Cytostatic activity against human MDA-MB-231 cells at IC50 concentration; format: functional, cell-based
compound,measurement,setting,value
COc1ccc(/C=C2/S/C(=N\c3nc4cc(-c5ccc(Cl)cc5)sc4s3)NC2=O)cc1,Activity,MDA-MB-231 [1],inactive
same,inhibition,[2],24%
same,inhibition,[3],21.8%
same,inhibition,[4],27.1%
same,inhibition,[5],97.5%
same,Activity,[6],Active
same,Ki,[7],37.1 µM
same,Ki,[8],4.8 µM
same,Ki,[9],3.1 µM
same,Ki,[10],5.1 µM
same,Activity,MCF7 [11],25.3%
same,Activity,MCF7 [12],15.8%
same,Activity,MDA-MB-231 [13],58.3%
same,Activity,MCF7 [14],inactive
same,Activity,MCF7 [15],inactive
same,Activity,MCF7 [16],inactive
same,Activity,MDA-MB-231 [17],inactive
same,Activity,MCF7 [18],inactive
same,Activity,MDA-MB-231 [19],inactive
same,Activity,MCF7 [20],Active
same,Activity,MCF7 [21],inactive
same,IC50,[22],9.2 µM
same,IC50,MCF7 [23],5.1 µM
same,Activity,MCF7 [24],Active
same,Activity,MDA-MB-231 [25],Active
